Measurements as given in ChEMBL document CHEMBL3797040, “Withanolides derived from Physalis peruviana (Poha) with potential anti-inflammatory activity” (Bioorg Med Chem Lett, 2016).

What was measured:
[1] = test system: RAW264.7; assay: Inhibition of lipopolysaccharide-induced nitric oxide production in mouse RAW264.7 cells pre-incubated for 30 mins before LPS stimulation for 20 hrs by Griess reagent based assay; format: functional, cell-based
[2] = test system: RAW264.7; assay: Inhibition of lipopolysaccharide-induced nitric oxide production in mouse RAW264.7 cells at 50 uM pre-incubated for 30 mins before LPS stimulation for 20 hrs by Griess reagent based assay; format: functional
[3] = Toxicity against mouse RAW264.7 cells assessed as cell survival at 50 uM by SRB assay; format: cell-based; details: read-out: Survival
[4] = Inhibition of TNFalpha-activated nuclear factor-kappa B activity (unknown origin) expressed in HEK293 cells incubated for 6 hrs by luciferase reporter gene based assay; format: cell-based; details: Homo sapiens, HEK293, 6 h
[5] = test system: HEK293; assay: Inhibition of TNFalpha-activated nuclear factor-kappa B activity (unknown origin) expressed in HEK293 cells at 50 uM incubated for 6 hrs by luciferase reporter gene based assay; format: cell-based; details: Homo sapiens
[6] = Toxicity against HEK293 cells assessed as cell survival at 50 uM; format: cell-based; details: human, read-out: Survival

SMILES | IC50 [1] [µM] | inhibition at 50 µM [2] [%] | viability at 50 µM [3] [%] | IC50 [4] [µM] | inhibition [5] [%] | viability at 50 µM [6] [%]
CC(=O)OC1C[C@H](O)CC2=CC[C@H]3[C@@H]4CC[C@H]([C@@](C)(O)[C@@H](O)C[C@@H]5COC(=O)[C@@H]5C)[C@@]4(C)CC[C@@H]3[C@]21C (some centres undefined) | 11.8 | 84.2 | 95.3 | 1.1 | 56.1 | 36.5
CC1=C(C)C(=O)O[C@@H]([C@](C)(O)[C@]2(O)CC[C@@]3(O)[C@@H]4C[C@H]5O[C@]56[C@@H](O)C=CC(=O)[C@]6(C)[C@H]4CC[C@]23C)C1 | 0.32 | 99.4 | 50.1 | 0.04 | 99.5 | 88.6
CC(=O)OC1C[C@H](O)CC2=CC[C@H]3[C@@H]4CC[C@H]([C@@](C)(O)[C@@H](O)C[C@@H]5COC(=O)[C@@]5(C)O)[C@@]4(C)CC[C@@H]3[C@]21C (some centres undefined) |  | 3.7 | 100 | 2.1 | 64.4 | 73.3
CC1=C(C)C(=O)O[C@@H]([C@@](C)(O)[C@]2(O)CC[C@@]3(O)[C@@H]4C[C@@H](O)[C@@]5(O)CC=CC(=O)[C@]5(C)[C@H]4CC[C@]23C)C1 |  | 26.4 | 84.1 | 31.2 | 65.8 | 89.6
CC1=C(C)C(=O)O[C@@H]([C@](C)(O)[C@]2(O)CC[C@@]3(O)[C@@H]4C[C@H](O)C5=CC=CC(=O)[C@]5(C)[C@H]4CC[C@]23C)C1 | 2.4 | 99.2 | 79.3 | 5.6 | 85 | 100
CC1=C(C)C(=O)O[C@@H]([C@](C)(O)[C@]2(O)CC[C@@]3(O)[C@@H]4[C@@H](O)[C@@H](O)[C@@]5(O)CC=CC(=O)[C@]5(C)[C@H]4CC[C@]23C)C1 | 44.6 | 58.3 | 90.4 | 24.6 | 66.9 | 98.4
CC1=C(C)C(=O)O[C@@H]([C@](C)(O)C2=CC[C@@]3(O)[C@@H]4C[C@H]5O[C@]56[C@@H](O)CCC(=O)[C@]6(C)[C@H]4CC[C@]23C)C1 | 14.6 | 64.7 | 100 |  | 43.7 | 81.9
CC1=C(CO)C[C@H]([C@](C)(O)[C@]2(O)CC[C@@]3(O)[C@@H]4C[C@@H](O)[C@@]5(O)CC=CC(=O)[C@]5(C)[C@H]4CC[C@]23C)OC1=O |  | 7.4 | 100 |  | 41 | 81.6
CNC(=N)NCCC[C@H](N)C(=O)O [TILARGININE] | 23.5 |  |  |  |  | 
CC1=C(C)C(=O)O[C@@H]([C@](C)(O)[C@]2(O)CC[C@@]3(O)[C@@H]4C[C@H]5O[C@]56[C@@H](O)[C@@H](O)CC(=O)[C@]6(C)[C@H]4CC[C@]23C)C1 | 7.8 | 86 | 100 |  | 54.1 | 97.1
CC1=C(C)C(=O)O[C@@H]([C@](C)(O)[C@]2(O)C[C@H](O)[C@@]3(O)[C@@H]4C[C@H](O)[C@@]5(O)CCCC(=O)[C@]5(C)[C@H]4CC[C@@]32C)C1 |  | 47.7 | 100 | 10.4 | 60.4 | 83.9
